From patent US12336981B2, “Compounds and compositions for the inhibition of NAMPT” (Valo Health, Inc., priority 2010, dated 2025)
pIC50: −log10 of the molar value. Like-named read-outs stand apart in the source and are kept apart here.

Experiments:
[1] = system: A2780 cells; test: In-vitro cell proliferation assay (SRB), A2780 cells; assay type: cell-based; details: A2780 cells, 72 hours, SRB, read-out: A2780 IC50
Summary of the method: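 Viable cells measured by SRB staining after 6% TCA fixation, absorbance 570 nm. Media-only background subtracted; % inhibition derived at two compound concentrations.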

[2] = biological target: T1, NAMPT (Homo sapiens, UniProt P43490); test: Biochemical inhibition assay: NAMPT enzymatic reaction, NMN quantified by mass spectrometry; details: read-out: Biochem IC50
T1 construct: His tag; host or cells: E. coli
Summary of the method: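 Inhibition of E. coli-expressed His-tagged human NAMPT, measured as NMN formation by mass spectrometry after a 30 min room-temperature reaction containing 1 μM NAM, 100 μM PRPP and 2.5 mM ATP.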

T1 sequence (P43490 whole entry): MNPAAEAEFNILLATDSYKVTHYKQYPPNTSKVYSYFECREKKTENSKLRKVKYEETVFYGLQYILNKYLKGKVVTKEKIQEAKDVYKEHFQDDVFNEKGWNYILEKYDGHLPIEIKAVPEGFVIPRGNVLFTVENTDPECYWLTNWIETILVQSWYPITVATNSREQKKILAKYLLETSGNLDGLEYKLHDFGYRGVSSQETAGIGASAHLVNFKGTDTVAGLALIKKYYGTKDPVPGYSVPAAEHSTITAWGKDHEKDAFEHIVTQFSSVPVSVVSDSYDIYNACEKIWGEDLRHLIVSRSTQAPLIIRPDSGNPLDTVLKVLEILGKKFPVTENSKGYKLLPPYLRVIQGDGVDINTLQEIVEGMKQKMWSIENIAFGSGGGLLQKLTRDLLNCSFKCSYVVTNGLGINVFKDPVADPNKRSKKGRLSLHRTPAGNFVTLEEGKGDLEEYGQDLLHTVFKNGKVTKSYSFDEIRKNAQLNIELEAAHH

| Compound | pIC50 ([1]; Homo sapiens, A2780, 72 h) | pIC50 ([2]; NAMPT enzymatic reaction) | pIC50 ([2]; NAMPT enzymatic assay) | pIC50 [1] |
| --- | --- | --- | --- | --- |
| O=C(NCc1ccc(S(=O)(=O)c2cccc(N3CCOCC3)c2)cc1)c1cc2cc(O)ccc2[nH]1 | 5.00 to 6.00 | 6.00 to 7.00 | – | – |
| O=C(NCc1ccc(S(=O)(=O)c2cccc3c2oc2ccccc23)cc1)c1cnc2nccn2c1 | 8.54 | – | 8.77 | – |
| O=C(NCc1ccc(S(=O)(=O)c2cccc3c2oc2ccccc23)cc1)c1cnc2[nH]ncc2c1 | 8.12 | – | 7.68 | – |
| O=C(NCc1ccc(S(=O)(=O)c2cccc3c2oc2ccccc23)cc1)c1cc2ccncc2o1 | 7.89 | – | 7.91 | – |
| O=C(NCc1ccc(S(=O)(=O)c2cccc3c2sc2ccccc23)cc1)c1cc2ccncc2o1 | 7.92 | – | 8.06 | – |
| O=C(NCc1ccc(S(=O)(=O)c2cccc3c2sc2ccccc23)cc1)c1cnc2nccn2c1 | 8.70 | – | 8.74 | – |
| O=C(NCc1ccc(S(=O)(=O)c2cccc3c2sc2ccccc23)cc1)c1cc2ccncc2s1 | 8.37 | – | 8.85 | – |
| COc1ccc(OC)c(S(=O)(=O)c2ccc(CNC(=O)c3cc4ccncc4o3)cc2)c1 | 8.20 | 7.94 | – | – |
| Cc1ccc(C)c(S(=O)(=O)c2ccc(CNC(=O)c3cc4ccncc4o3)cc2)c1 | 7.62 | 7.74 | – | – |
| CN(C)CCOc1cccc(S(=O)(=O)c2ccc(CNC(=O)c3cc4ccncc4o3)cc2)c1 | 8.24 | – | 7.93 | – |
| CN(C)CCc1cccc(S(=O)(=O)c2ccc(CNC(=O)c3cc4ccncc4s3)cc2)c1 | 8.80 | – | 8.60 | – |
| CN(C)CCc1cccc(S(=O)(=O)c2ccc(CNC(=O)c3cnc4nccn4c3)cc2)c1 | 6.00 to 7.00 | – | 8.46 | – |
| CN(C)CCc1cccc(S(=O)(=O)c2ccc(CNC(=O)c3cc4cnccc4[nH]3)cc2)c1 | 7.65 | – | 7.53 | – |
| O=C(NCc1ccc(S(=O)(=O)c2cccc(OCCN3CCOCC3)c2)cc1)c1cc2ccncc2s1 | 8.82 | – | 8.52 | – |
| O=C(NCc1ccc(S(=O)(=O)c2cccc(OCCN3CCOCC3)c2)cc1)c1cc2cnccc2[nH]1 | 7.90 | – | 7.19 | – |
| O=C(NCc1ccc(S(=O)(=O)c2cccc(OCCN3CCOCC3)c2)cc1)c1ccc2nccn2c1 | 8.47 | – | 8.17 | – |
| O=C(NCc1ccc(S(=O)(=O)c2cccc(OCCN3CCOCC3)c2)cc1)c1cnc2nccn2c1 | 7.61 | – | 8.51 | – |
| CC(C)CNC(=O)c1cccc(S(=O)(=O)c2ccc(CNC(=O)c3cnc4nccn4c3)cc2)c1 | 7.34 | – | 8.15 | – |
| CC(C)CNC(=O)c1cccc(S(=O)(=O)c2ccc(CNC(=O)c3cc4cnccc4[nH]3)cc2)c1 | 7.34 | – | 7.71 | – |
| CC(C)CNC(=O)c1cccc(S(=O)(=O)c2ccc(CNC(=O)c3cc4ccncc4o3)cc2)c1 | 7.58 | – | 7.77 | – |
| CN(C)Cc1cccc(S(=O)(=O)c2ccc(CNC(=O)c3cnc4nccn4c3)cc2)c1 | 7.18 | – | 8.36 | – |
| CN(C)Cc1cccc(S(=O)(=O)c2ccc(CNC(=O)c3cc4ccncc4o3)cc2)c1 | 8.21 | – | 8.33 | – |
| O=C(NCc1ccc(S(=O)(=O)c2cccc(C(=O)N3CCOCC3)c2)cc1)c1cnc2[nH]ncc2c1 | 6.00 to 7.00 | – | 6.91 | – |
| CC(C)NC(=O)c1cccc(S(=O)(=O)c2ccc(CNC(=O)c3cc4ccncc4o3)cc2)c1 | 7.80 | – | 7.82 | – |

| Compound | pIC50 ([1]; Homo sapiens, A2780, 72 h) | pIC50 ([2]; NAMPT enzymatic reaction) | pIC50 ([2]; NAMPT enzymatic assay) | pIC50 [1] |
| --- | --- | --- | --- | --- |
| CC(C)NC(=O)c1cccc(S(=O)(=O)c2ccc(CNC(=O)c3cnc4nccn4c3)cc2)c1 | 7.18 | – | 8.15 | – |
| CC(C)NC(=O)c1cccc(S(=O)(=O)c2ccc(CNC(=O)c3ccc4nccn4c3)cc2)c1 | 7.30 | – | 7.65 | – |
| CN(C)CCc1ccc(S(=O)(=O)c2ccc(CNC(=O)c3ccc4nccn4c3)cc2)cc1 | 9.10 | – | 8.68 | – |
| CN(C)CCc1ccc(S(=O)(=O)c2ccc(CNC(=O)c3cnc4nccn4c3)cc2)cc1 | 7.74 | – | 8.70 | – |
| O=C(NCc1ccc(S(=O)(=O)c2ccc(OCCN3CCCC3)cc2)cc1)c1cc2cnccc2[nH]1 | – | – | 8.52 | 8.64 |
| CCC[C@@H](O)c1ccc(S(=O)(=O)c2ccc(CNC(=O)c3cnc4nccn4c3)cc2)cc1 | 7.85 | – | 8.32 | – |
| CCC[C@@H](O)c1ccc(S(=O)(=O)c2ccc(CNC(=O)c3cc4ccncc4o3)cc2)cc1 | 7.91 | – | 7.55 | – |
| CN(C)Cc1ccc(S(=O)(=O)c2ccc(CNC(=O)c3cnc4nccn4c3)cc2)cc1 | 7.61 | – | 8.48 | – |
| COc1cc(F)ccc1S(=O)(=O)c1ccc(CNC(=O)c2cc3ccncc3o2)cc1 | 7.80 | 7.90 | – | – |
| COc1cc(F)ccc1S(=O)(=O)c1ccc(CNC(=O)c2cnc3nccn3c2)cc1 | 7.13 | 7.72 | – | – |
| Cc1cc(F)ccc1S(=O)(=O)c1ccc(CNC(=O)c2cnc3nccn3c2)cc1 | 6.00 to 7.00 | 7.89 | – | – |
| Cc1cc(F)ccc1S(=O)(=O)c1ccc(CNC(=O)c2cc3ccncc3o2)cc1 | 7.19 | 7.73 | – | – |
| Cc1cc(S(=O)(=O)c2ccc(CNC(=O)c3cnc4nccn4c3)cc2)c(C)cc1F | 7.53 | 8.24 | – | – |
| Cc1cc(S(=O)(=O)c2ccc(CNC(=O)c3ccc4nccn4c3)cc2)c(C)cc1F | 7.96 | 7.36 | – | – |
| CC(C)NC(=O)c1cc(S(=O)(=O)c2ccc(CNC(=O)c3cnc4nccn4c3)cc2)ccc1F | 7.07 | – | 8.11 | – |
| CC(C)NC(=O)c1cc(S(=O)(=O)c2ccc(CNC(=O)c3cc4ccncc4s3)cc2)ccc1F | 8.17 | – | 7.67 | – |
| COc1cc(S(=O)(=O)c2ccc(CNC(=O)c3cc4cnccc4[nH]3)cc2)ccc1F | 8.27 | 7.56 | – | – |
| COc1cc(S(=O)(=O)c2ccc(CNC(=O)c3cnc4nccn4c3)cc2)ccc1F | 7.97 | 8.31 | – | – |
| COc1cc(S(=O)(=O)c2ccc(CNC(=O)c3cc4ccncc4o3)cc2)ccc1F | 8.15 | 8.11 | – | – |
| COc1cc(S(=O)(=O)c2ccc(CNC(=O)c3ccc4nccn4c3)cc2)ccc1F | 8.17 | 7.71 | – | – |
| Cc1cc(S(=O)(=O)c2ccc(CNC(=O)c3cnc4nccn4c3)cc2)ccc1F | 8.02 | 8.66 | – | – |
| Cc1cc(S(=O)(=O)c2ccc(CNC(=O)c3cnc4[nH]ncc4c3)cc2)ccc1F | 8.08 | 8.30 | – | – |
| Cc1cc(S(=O)(=O)c2ccc(CNC(=O)c3cc4ccncc4o3)cc2)ccc1F | 8.22 | 7.88 | – | – |
| COc1ccc(S(=O)(=O)c2ccc(CNC(=O)c3cnc4nccn4c3)cc2)c(C)c1 | 7.17 | 8.62 | – | – |

| Compound | pIC50 ([1]; Homo sapiens, A2780, 72 h) | pIC50 ([2]; NAMPT enzymatic reaction) | pIC50 ([2]; NAMPT enzymatic assay) | pIC50 [1] |
| --- | --- | --- | --- | --- |
| COc1cc(C)c(S(=O)(=O)c2ccc(CNC(=O)c3cnc4nccn4c3)cc2)cc1C | 7.89 | 8.28 | – | – |
| COc1cc(C)c(S(=O)(=O)c2ccc(CNC(=O)c3ccc4nccn4c3)cc2)cc1C | 8.22 | 7.55 | – | – |
| COc1cc(C)c(S(=O)(=O)c2ccc(CNC(=O)c3cc4ccncc4o3)cc2)cc1C | 7.89 | 7.91 | – | – |
| COc1ccc(S(=O)(=O)c2ccc(CNC(=O)c3cnc4nccn4c3)cc2)cc1C | 8.26 | 8.66 | – | – |
| COc1c(C)cc(S(=O)(=O)c2ccc(CNC(=O)c3cc4ccncc4s3)cc2)cc1C | 9.05 | 8.01 | – | – |
| COc1c(C)cc(S(=O)(=O)c2ccc(CNC(=O)c3ccc4nccn4c3)cc2)cc1C | 8.85 | 7.84 | – | – |
| COc1c(C)cc(S(=O)(=O)c2ccc(CNC(=O)c3cc4ccncc4o3)cc2)cc1C | 8.74 | 8.25 | – | – |
| COc1c(C)cc(S(=O)(=O)c2ccc(CNC(=O)c3cnc4nccn4c3)cc2)cc1C | 8.89 | 8.57 | – | – |
| COc1c(C)cc(S(=O)(=O)c2ccc(CNC(=O)c3cc4cnccc4[nH]3)cc2)cc1C | 8.77 | 7.29 | – | – |
| COc1ccc(S(=O)(=O)c2ccc(CNC(=O)c3cnc4[nH]ncc4c3)cc2)cc1 | 7.84 | 7.68 | – | – |
| COc1ccc(S(=O)(=O)c2ccc(CNC(=O)c3cnc4nccn4c3)cc2)cc1 | 7.68 | 8.57 | – | – |
| Cc1ccc(S(=O)(=O)c2ccc(CNC(=O)c3cnc4nccn4c3)cc2)cc1 | 7.71 | 8.37 | – | – |
| O=C(NCc1ccc(S(=O)(=O)c2ccc(-c3ccccc3)cc2)cc1)c1cnc2[nH]ncc2c1 | 7.93 | 7.49 | – | – |
| O=C(NCc1ccc(S(=O)(=O)c2ccc(-c3ccccc3)cc2)cc1)c1cc2ccncc2s1 | 7.97 | 8.52 | – | – |
| CCCOc1ccc(S(=O)(=O)c2ccc(CNC(=O)c3cc4cnccc4[nH]3)cc2)cc1 | 8.17 | 8.28 | – | – |
| CCCOc1ccc(S(=O)(=O)c2ccc(CNC(=O)c3cc4ccncc4o3)cc2)cc1 | 7.92 | 7.31 | – | – |
| CCCOc1ccc(S(=O)(=O)c2ccc(CNC(=O)c3cnc4nccn4c3)cc2)cc1 | 8.21 | 8.66 | – | – |
| CCCOc1ccc(S(=O)(=O)c2ccc(CNC(=O)c3ccc4nccn4c3)cc2)cc1 | 8.72 | 8.21 | – | – |
| CCCOc1ccc(S(=O)(=O)c2ccc(CNC(=O)c3cc4ccncc4s3)cc2)cc1 | 8.09 | 8.37 | – | – |
| O=C(NCc1ccc(S(=O)(=O)c2cc(F)ccc2CO)cc1)c1cc2ccncc2s1 | 7.60 | – | 8.11 | – |
| O=C(NCc1ccc(S(=O)(=O)c2cc(F)ccc2CO)cc1)c1ccc2nccn2c1 | 7.19 | – | 7.98 | – |
| O=C(NCc1ccc(S(=O)(=O)c2cc(F)ccc2CO)cc1)c1cnc2nccn2c1 | 6.00 to 7.00 | – | 7.89 | – |
| O=C(NCc1ccc(S(=O)(=O)c2cc(O)ccc2OC(F)(F)F)cc1)c1cc2ccncc2o1 | 7.94 | – | 8.19 | – |
| O=C(NCc1ccc(S(=O)(=O)c2cc(O)ccc2OC(F)(F)F)cc1)c1cnc2[nH]ncc2c1 | 7.17 | – | 7.66 | – |
